# Assay results published in patent publication US20060281807A1, “Quassinoid compositions for the treatment of cancer and other proliferative diseases” (Tapestry Pharmaceuticals, Inc., priority 2005, published 2006).
# Where “and” joins values, the source holds several entries; their conditions need not be identical. Identical values can stand only once. Like-named read-outs stand apart in the source and are kept apart here.
# Legend:
# L1210 (murine leukemia) = test: Disk diffusion assay, zone of inhibition, L1210; type: cell-based; settings: 1 mg/mL
# Procedure: (§1) A disk diffusion assay was performed to define the differential cell killing ability of 15-O-(3′-hydroxy-3′-isopropyl-4′-methylpentanoyl)bruceolide. Seven cell types were assayed: L1210 (ATCC CCL-219) (murine leukemia), CCRF-CEM (ATCC CCL-119) (human leukemia), Colon 38 (murine colon adenocarcinoma), HCT116 (ATCC CCL-247) (human colorectal carcinoma), H125 (human lung carcinoma). The murine and human granulocyte/macrophage progenitor cell line (CFU-GM), served as controls.
# (§2) Colon 38 cells (about 1 gram) were cut into small fragments in 15 mL of Hank's Balanced Salt Solution (HBSS) over a 100-mesh sieve and gently forced through by the scissors with HBSS constantly perfusing the sieve. The resulting material was then drawn into and out of a 5 mL syringe without a needle to further disperse the cell clumps. The cell solution was diluted and plated in 0.3% agarose in DMEM plus 10% heat-inactivated Bovine Calf Serum (BCS). For plating of all of the cell types (except controls), the 60 mm plates were first prepared with a hard agar bottom layer (0.6% agar in RPMI-1640 plus 15% BCS).
# (§3) A 15 μl sample of each compound was dropped onto a 6.5 mm disk (Baxter filter disks). The disks were allowed to dry overnight and then placed close to the edge of a petri dish. Depending upon the cell type, the dishes were incubated for 7 to 10 days, and examined by an inverted stereo-microscope (10×) for measurement of the zone of inhibition. The zone of inhibition was measured from the edge of the filter disk to the beginning of normal-sized colony formation. The diameter of the filter disk, 6.5 mm, was arbitrarily taken as a zone of 200 units. Compounds that were selective for killing solid tumors, as compared to leukemia or normal cells (“solid tumor selective”) were defined as those compounds which produced a difference in zones between solid tumor cells and either normal or leukemia cells of at least 250 units. The results of this analysis are set forth in Table 4, which illustrates the relative diameters of the zones of inhibition by various drugs on the growth of the respective cell types at various drug dilutions.
# [1] = tested on: Colon 38 (murine colon adenocarcinoma); test: Disk diffusion assay, zone of inhibition, Colon 38; zone differentials, potency and product; type: cell-based; parameters: key to C38ΔL1210 / C38ΔCFU: difference of zone of inhibition values, in zone units; settings: for zone of inhibition, Colon 38: 1 mg/mL; for Sum: C38ΔL1210 plus C38ΔCFU; for C38ΔL1210: Colon38 vs L1210 leukemia; for Product: potency multiplied by zone differentials
# Procedure: as §1, §2, §3
# The degree of differential sensitivity of several inventive compounds was compared with respect to the Colon38 cell line, the L1210 cell line, and the control CFU-GM cell lines. The degree of differential sensitivity was estimated by calculating the difference between the zone of inhibition values, as determined in Example 6, for the solid tumor compared to either the leukemia (C38ΔL1210) or normal cell (C38ΔCFU).
# The potency of each of several inventive compounds was determined by identifying the dilution required to yield an average zone of inhibition of 500 units for the Colon38 cell type. Then the potency and the zone differentials were multiplied to define a “product” (see Table 5), which can be used to rank the compounds tested for their potential for further development; the greater the product value the greater the probability of useful chemotherapeutic utility.
# [2] = tested on: HCT116 (human colorectal carcinoma); test: Disk diffusion assay, zone of inhibition, HCT116; type: cell-based; settings: 1 mg/mL
# Procedure: as §1, §2
# (§4) HCT116 and H125 cells were maintained in cell culture, and were removed from culture by a trypsin-collagenase-DNAase cocktail. The plating efficiencies of each cell type was sufficiently high that 30,000 cells in 3 mL produced the desired number of colonies (i.e., over 10,000 per plate) in 60 mm plates. This soft agar top layer (0.3% with the serum and media as above) plus the titrated tumor cells were poured into the plates and allowed to solidify.
# as §3
# [3] = tested on: H125 (human lung carcinoma); test: Disk diffusion assay, zone of inhibition, H125; type: cell-based; settings: 1 mg/mL
# Procedure: as §1, §2, §4, §3
# [4] = tested on: CCRF-CEM (human leukemia); test: Disk diffusion assay, zone of inhibition, CCRF-CEM; type: cell-based; settings: 1 mg/mL
# Procedure: as §1, §2, §3
# murine CFU-GM = test: Disk diffusion assay, zone of inhibition, murine CFU-GM; type: cell-based; settings: 1 mg/mL
# Procedure: as §1
# (§5) For CFU-GM cells, the femoral marrow of BD2F1 mice was flushed with MEM alpha (2 mL per femur). The cells were passed through an 18 gauge needle twice and the monodispersed suspension was counted. A total of 1.5×10^6 cells were plated in 3 mL of 0.3% agar with the addition of 10% L cell conditioned media, which provided colony stimulating factor, in MEM-alpha plus 10% BCS. For human CFU-GM, the cells were obtained from Poietic Technologies, Inc. (Gaithersburg, Md.) and washed twice with PBS before being titered and added to the agar mixture. The same cell number, culture conditions, and conditioning factors used with respect to the murine CFU-GM cells were used with the human cells, except that the cultures were assessed after 10 days of incubation.
# as §3
# HCT-116 cells [5] = test: HCT-116 cytotoxicity, viable cell count by trypan blue; type: cell-based, human
# HCT-116 cells [6] = test: Clonogenic assay, HCT-116; type: cell-based, human; settings: colonies at 7 days
# Procedure: A clonogenic assay was performed using HCT-116 cells. Specifically, HCT-116 cells were seeded at 200 to 20,000 cells in 60 mm dishes. […] At either 2 hours or 24 hours following drug administration, the drug-containing media was removed, and fresh media without drug was added. In addition, one group of cells was subjected to continuous drug exposure for the entire incubation period. The dishes were incubated for 7 days (at 37° C. and 5% CO2), media was removed, and the colonies were stained with methylene blue. Colonies containing 50 cells or more were counted. The results were normalized to an untreated control. Plating efficiency for the untreated cells was about 90%. Repeat experiments also were carried out to define the cell survival range between 1 (100%) and 10^−3 (0.1%) survival. A survival rate of 10^−1 was chosen as the minimal level that would be required in vivo to achieve therapeutic efficacy against HCT-116 cells in tumor-bearing mice. The clonogenic dose response to 15-O-(3′-hydroxy-3′-isopropyl-4′-methylpentanoyl)bruceolide is illustrated in FIG. 4. The clonogenic dose response to 15-(3-isopropyl-4-methyl-2-pentenoyl)-bruceolide is illustrated in FIG. 5.
# [7] = Maximum tolerated dose in mice; settings: intravenous, first stage, one mouse per dose
# Procedure: Formulations containing 15-O-(3′-hydroxy-3′-isopropyl-4′-methylpentanoyl)bruceolide, 15-(3-isopropyl-4-methyl-2-pentenoyl)-bruceolide, and, for comparative purposes, bruceantin, or peninsularinone were prepared by solubilizing each compound in up to 100 mg/mL of ethanol. These solutions were diluted 1:1 with a stabilizer (Cremophor/propylene glycol). The solutions were then diluted in saline (1:10 minimum).
# The maximum tolerated dose (MTD) was determined by a two-stage experiment. In the first stage, between 1 and 10 mg/mL of the formulation was prepared as described above. Next, 0.25 mL of the formulation was injected intravenously into one 20 gram mouse (0.75 mg/mouse). If the animal died within 30 days of injection, a series of subsequent 2-fold dilutions were administered to individual mice until an MTD was defined. […] The second stage of the study involved increasing the number of mice per dose to four, and retesting four dilutions that bracket the MTD from the individual mouse study. The four dilutions were the MTD, a dosage twice the MTD, a dosage ½ the MTD, and a dosage ¼ the MTD.
# human CFU-GM = type: cell-based; settings: 1 mg/mL
# Procedure: as §1, §5, §3
# [8] = no dilution, 15 μl on disk, 6.5 mm = 200 units
# [9] = difference between zone of inhibition values
# [10] = HCT-116, 3 days with compound, viable cells, by interpolation
smiles,measurement,setting,value
"CC[C@@](O)(CC(=O)O[C@@H]1C(=O)O[C@@H]2C[C@@H]3C(C)=CC(=O)[C@H](O)[C@]3(C)[C@H]3[C@]4(O)OC[C@]32[C@@H]1[C@@H](C)[C@H]4O)C(C)C [Peninsularinone, peninsularinone]","zone of inhibition, L1210",L1210 (murine leukemia); dilution 1/10,>1000 units
same,"zone of inhibition, L1210",L1210 (murine leukemia); dilution 1/100,700 units
same,"zone of inhibition, L1210",L1210 (murine leukemia); dilution 1/1000,300 units and 200 units
same,"zone of inhibition, L1210",L1210 (murine leukemia); dilution 1/4000,50 units
same,"zone of inhibition, L1210",L1210 (murine leukemia); dilution 1/10000,100 units
same,"zone of inhibition, L1210",L1210 (murine leukemia); [8],>1000 units
same,"zone of inhibition, Colon 38",[1]; dilution 1/10,>1000 units
same,"zone of inhibition, Colon 38",[1]; dilution 1/100,>1000 units
same,"zone of inhibition, Colon 38",[1]; dilution 1/1000,800 units and 550 units
same,"zone of inhibition, Colon 38",[1]; dilution 1/4000,250 units
same,"zone of inhibition, Colon 38",[1]; dilution 1/10000,200 units
same,"zone of inhibition, Colon 38",[1]; [8],>1000 units
same,Sum,[1],1100 and 550
same,C38ΔL1210,[1]; [9],450 and 250
same,Product,[1],6600 and 3575
same,"zone of inhibition, H-116",[2]; dilution 1/10,>1000 units
same,"zone of inhibition, H-116",[2]; dilution 1/100,950 units
same,"zone of inhibition, H-116",[2]; dilution 1/1000,450 units
same,"zone of inhibition, H-116",[2]; [8],>1000 units
same,"zone of inhibition, H-125 M",[3]; dilution 1/10,>1000 units
same,"zone of inhibition, H-125 M",[3]; dilution 1/100,1000 units
same,"zone of inhibition, H-125 M",[3]; dilution 1/1000,400 units
same,"zone of inhibition, H-125 M",[3]; [8],>1000 units
same,"zone of inhibition, CEM",[4]; dilution 1/10,>1000 units
same,"zone of inhibition, CEM",[4]; dilution 1/100,800 units
same,"zone of inhibition, CEM",[4]; dilution 1/1000,500 units
same,"zone of inhibition, CEM",[4]; [8],>1000 units
same,"zone of inhibition, murine CFU-GM",murine CFU-GM; dilution 1/10,>1000 units
same,"zone of inhibition, murine CFU-GM",murine CFU-GM; dilution 1/100,450 units
same,"zone of inhibition, murine CFU-GM",murine CFU-GM; dilution 1/4000,0 units
same,"zone of inhibition, murine CFU-GM",murine CFU-GM; dilution 1/10000,0 units
same,"zone of inhibition, murine CFU-GM",murine CFU-GM; [8],>1000 units
same,IC90/IC50,HCT-116 cells [5]; HCT-116,13
same,IC50,HCT-116 cells [5]; [10],1.2 ng/mL
same,IC90,HCT-116 cells [5]; [10],15 ng/mL
same,Concentration Required for 10^−1 Survival Fraction,"HCT-116 cells [6]; HCT-116, 2 Hour Exposure",>10 μg/mL
same,Concentration Required for 10^−1 Survival Fraction,"HCT-116 cells [6]; HCT-116, 24 Hour Exposure",1 × 10^−2 μg/mL
same,Concentration Required for 10^−1 Survival Fraction,"HCT-116 cells [6]; HCT-116, Continuous Exposure",1 × 10^−3 μg/mL
same,"maximum tolerated dose, Dose - 1 Mouse",[7],0.01 mg/mouse and 0.45 mg/kg
"CC(=O)O[C@H]1C(=O)[C@@]2(C)[C@H]([C@H](OC(=O)c3ccccc3)[C@]3(O)C[C@H](OC(=O)[C@H](O)[C@@H](NC(=O)c4ccccc4)c4ccccc4)C(C)=C1C3(C)C)[C@]1(OC(C)=O)CO[C@@H]1C[C@@H]2O [Taxol, taxol]","zone of inhibition, L1210",L1210 (murine leukemia); dilution 1/4,550 units
same,"zone of inhibition, L1210",L1210 (murine leukemia); dilution 1/16,500 units
same,"zone of inhibition, L1210",L1210 (murine leukemia); dilution 1/64,350 units
same,"zone of inhibition, L1210",L1210 (murine leukemia); dilution 1/256,50 units
same,"zone of inhibition, L1210",L1210 (murine leukemia); [8],650 units
same,"zone of inhibition, Colon 38",[1]; dilution 1/4,900 units
same,"zone of inhibition, Colon 38",[1]; dilution 1/16,750 units
same,"zone of inhibition, Colon 38",[1]; dilution 1/64,600 units
same,"zone of inhibition, Colon 38",[1]; dilution 1/256,450 units
same,"zone of inhibition, Colon 38",[1]; [8],>1000 units
same,Sum,[1],700
same,C38ΔL1210,[1]; [9],400
same,C38ΔCFU,"[1]; difference between zone of inhibition values, Colon38 vs normal cell CFU-GM",300
same,Product,[1],3500
same,"zone of inhibition, H-116",[2]; dilution 1/4,750 units
same,"zone of inhibition, H-116",[2]; dilution 1/16,650 units
same,"zone of inhibition, H-116",[2]; dilution 1/64,550 units
same,"zone of inhibition, H-116",[2]; dilution 1/256,400 units
same,"zone of inhibition, H-116",[2]; [8],850 units
same,"zone of inhibition, H-125 M",[3]; dilution 1/4,850 units
same,"zone of inhibition, H-125 M",[3]; dilution 1/16,750 units
same,"zone of inhibition, H-125 M",[3]; dilution 1/64,650 units
same,"zone of inhibition, H-125 M",[3]; dilution 1/256,500 units
same,"zone of inhibition, H-125 M",[3]; [8],>1000 units
same,"zone of inhibition, CEM",[4]; dilution 1/4,>1000 units
same,"zone of inhibition, CEM",[4]; dilution 1/16,900 units
same,"zone of inhibition, CEM",[4]; dilution 1/64,750 units
same,"zone of inhibition, CEM",[4]; dilution 1/256,550 units
same,"zone of inhibition, CEM",[4]; [8],>1000 units
same,"zone of inhibition, murine CFU-GM",murine CFU-GM; dilution 1/4,600 units
same,"zone of inhibition, murine CFU-GM",murine CFU-GM; dilution 1/16,550 units
same,"zone of inhibition, murine CFU-GM",murine CFU-GM; dilution 1/64,400 units
same,"zone of inhibition, murine CFU-GM",murine CFU-GM; dilution 1/256,150 units
same,"zone of inhibition, murine CFU-GM",murine CFU-GM; [8],650 units
same,"zone of inhibition, human CFU-GM",human CFU-GM; dilution 1/4,>1000 units
same,"zone of inhibition, human CFU-GM",human CFU-GM; dilution 1/16,800 units
same,"zone of inhibition, human CFU-GM",human CFU-GM; dilution 1/64,750 units
same,"zone of inhibition, human CFU-GM",human CFU-GM; dilution 1/256,550 units
same,"zone of inhibition, human CFU-GM",human CFU-GM; [8],>1000 units
